In US10508120B2, “TYK2 inhibitors and uses thereof” (Nimbus Lakshmi, Inc., priority 2017, dated 2019):

Columns and labels:
[1] = biological target: human TYK2 (JH2domain-pseudokinase) (Homo sapiens (Human), UniProt P29597); experiment: TYK2 JH2 Domain Binding Assay (KINOMEscan)
Method in brief: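 Pseudokinase domain binding was measured by qPCR of tagged, bead-retained kinase after 1 h room-temperature competition, with 0.9% DMSO and compound up to 30,000 nM in 3-fold steps. Hill-equation Kd, duplicate.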

Tyk2 kinase domain (DH1) = Tyk2 kinase domain (DH1) (Homo sapiens (Human), UniProt P29597); experiment: Tyk2 Radioactive Kinase Assay; type: biochemical; conditions: compound at 10 μM; ATP 10 μM; read-out: Tyk2 JH1% Inhibition @ 10 μM
Method in brief: (§1)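 Compounds were tested at a single concentration of 10 μM in a radiometric kinase format against each isolated kinase domain. Activity is reported as percent inhibition at that concentration.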

JAK2 kinase domain (JH1) = JAK2 kinase domain (JH1) (Homo sapiens (Human), UniProt O60674); experiment: JAK2 Radioactive Kinase Assay; type: biochemical; conditions: compound at 10 μM; ATP 10 μM; read-out: JAK2 JH1% Inhibition @ 10 μM
Method in brief: as §1

Tyk2 kinase domain (DH1), sequence (P29597 897-1176): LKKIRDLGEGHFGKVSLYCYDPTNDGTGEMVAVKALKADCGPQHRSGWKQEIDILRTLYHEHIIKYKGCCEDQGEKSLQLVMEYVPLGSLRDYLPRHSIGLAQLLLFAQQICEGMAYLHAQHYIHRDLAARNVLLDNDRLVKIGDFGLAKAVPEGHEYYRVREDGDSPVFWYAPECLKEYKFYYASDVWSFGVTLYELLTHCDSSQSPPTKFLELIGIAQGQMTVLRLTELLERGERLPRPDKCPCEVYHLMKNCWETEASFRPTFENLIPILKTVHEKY
JAK2 kinase domain (JH1), sequence (O60674 849-1124): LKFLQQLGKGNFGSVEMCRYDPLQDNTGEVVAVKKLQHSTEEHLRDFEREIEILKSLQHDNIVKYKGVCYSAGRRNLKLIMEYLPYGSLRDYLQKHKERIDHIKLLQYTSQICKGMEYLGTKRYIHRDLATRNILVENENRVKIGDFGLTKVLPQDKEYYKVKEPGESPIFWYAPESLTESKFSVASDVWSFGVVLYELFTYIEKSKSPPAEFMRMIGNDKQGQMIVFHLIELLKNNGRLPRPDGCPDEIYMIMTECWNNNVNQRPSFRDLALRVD
human TYK2 (JH2domain-pseudokinase), sequence (P29597 556-888): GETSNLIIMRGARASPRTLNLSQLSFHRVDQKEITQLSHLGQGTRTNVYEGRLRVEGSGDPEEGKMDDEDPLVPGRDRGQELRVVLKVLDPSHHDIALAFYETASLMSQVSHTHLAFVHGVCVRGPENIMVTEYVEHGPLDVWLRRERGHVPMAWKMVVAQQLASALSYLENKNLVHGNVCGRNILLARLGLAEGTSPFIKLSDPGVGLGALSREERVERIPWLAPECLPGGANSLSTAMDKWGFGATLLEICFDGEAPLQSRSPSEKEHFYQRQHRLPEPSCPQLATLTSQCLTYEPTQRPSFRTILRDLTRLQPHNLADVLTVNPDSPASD

Row | Structure (SMILES) | Kd [1] [nM] | inhibition at 10 µM (Tyk2 kinase domain (DH1)) [%] | inhibition at 10 µM (JAK2 kinase domain (JH1)) [%]
1 | CNc1cc(Nc2cccc([C@H]3CCCOC3)n2)nc2c(C(=O)N[C@H]3CC[C@@H]3O)cnn12 [I-602] | < 0.2 | < 50 | < 50
2 | CNc1cc(Nc2cccc([C@H]3CCCOC3)n2)nc2c(C(=O)N[C@@H]3CC[C@@H]3O)cnn12 [I-604] | < 0.2 | < 50 | < 50
3 | CNc1cc(Nc2cccc([C@@H]3CCCOC3)n2)nc2c(C(=O)N[C@@H]3CC[C@@H]3O)cnn12 [I-605] | < 0.2 | < 50 | < 50
4 | CNc1cc(Nc2cccn([C@H]3CCN(C)C[C@@H]3F)c2=O)nc2c(C(=O)NC3CC3)cnn12 [I-608] | < 0.2 | < 50 | < 50
5 | CNc1cc(Nc2cccn(C3CCN(C)CC3)c2=O)nc2c(C(=O)N[C@@H]3CC[C@@H]3O)cnn12 [I-609] | < 0.2 | < 50 | < 50
6 | CNc1cc(Nc2cccc([C@@H]3CCCCO3)n2)nc2c(C(=O)N[C@@H]3CC[C@@H]3O)cnn12 [I-610] | < 0.2 | < 50 | < 50
7 | CNc1cc(Nc2cccc([C@H]3CCCCO3)n2)nc2c(C(=O)N[C@@H]3CC[C@@H]3O)cnn12 [I-611] | < 0.2 | < 50 | < 50
8 | CNc1cc(Nc2cccn([C@H]3CC[C@H](OC)CC3)c2=O)nc2c(C(=O)NCC(C)CO)cnn12 (stereo partly drawn) [I-613] | < 0.2 | < 50 | < 50
9 | CNc1cc(Nc2cccnc2OC)nc2c(C(=O)N[C@@H]3COC[C@@H]3O)cnn12 [I-614] | 1 to 10 | < 50 | < 50
10 | CNc1cc(Nc2cccnc2OC)nc2c(C(=O)N[C@H]3COC[C@H]3O)cnn12 [I-615] | < 0.2 | < 50 | < 50
11 | CNc1cc(-c2cn(CCN3CCN(C)CC3)c3ncccc23)nc2c(C(=O)NC3CC3)cnn12 [I-616] | < 0.2 | < 50 | < 50
12 | CNc1cc(-c2cn(CCN3CCN(C)CC3)c3ncccc23)nc2c(C(=O)N[C@H]3C[C@H]3F)cnn12 [I-617] | < 0.2 | < 50 | < 50
13 | CNc1cc(Nc2cccc(N3CC4(CCO4)C3)n2)nc2c(C(=O)NC3CC3)cnn12 [I-618] | < 0.2 | < 50 | < 50
14 | CNc1cc(Nc2cccc(N3CC4(CCO4)C3)n2)nc2c(C(=O)N[C@H]3C[C@H]3F)cnn12 [I-619] | < 0.2 | < 50 | < 50
15 | CNc1cc(Nc2cccc(N3CC(O)C3)n2)nc2c(C(=O)NC3CC3)cnn12 [I-620] | < 0.2 | < 50 | < 50
16 | CNc1cc(Nc2cccn([C@H]3CCC[C@@H](OC)C3)c2=O)nc2c(C(=O)NC3CC3)cnn12 [I-622] | 0.2 to 1 | < 50 | < 50
17 | CNc1cc(Nc2c(F)ccn(C(C)C)c2=O)nc2c(C(=O)NC3CC3)cnn12 [I-623] | 1 to 10 | < 50 | < 50
18 | CNc1cc(Nc2c(F)ccn(-c3nccs3)c2=O)nc2c(C(=O)N[C@H]3C[C@H]3F)cnn12 [I-624] | 0.2 to 1 | 70 to 90 | < 50
19 | CNc1cc(Nc2cc(F)cn(C3CCN(C)CC3)c2=O)nc2c(C(=O)NC3CC3)cnn12 [I-625] | < 0.2 | < 50 | < 50
20 | CNc1cc(Nc2cc(F)cn(C3CCN(C)CC3)c2=O)nc2c(C(=O)N[C@H]3C[C@H]3F)cnn12 [I-626] | < 0.2 | < 50 | < 50
21 | CNc1cc(Nc2cccn([C@H]3CCN(C)C[C@H]3F)c2=O)nc2c(C(=O)NC3CC3)cnn12 [I-627] | < 0.2 | < 50 | < 50
22 | CNc1cc(Nc2cccn(C3CCN(CCC#N)CC3)c2=O)nc2c(C(=O)N[C@H]3C[C@H]3F)cnn12 [I-628, -((1-(1-(2-cyanoethyl)piperidin-4-yl)-2-oxo-1,2-dihydropyridin-3-yl)amino)-N-((1R,2S)-2-fluorocyclopropyl)-7-(methylamino)pyrazolo[1,5-a]pyrimidine-3-carboxamide] | < 0.2 | < 50 | < 50
